# Results reported in patent US7737118B2, “Rotational intrathecal analgesia” (Omeros Corporation, priority 2001, dated 2010).
# Key:
# Type in all cases: in vivo
# [1] = system: male Sprague-Dawley rats; experiment: Rat HWL study, both types of stimulation: analgesia and development of complete tolerance; details: drug alone, intrathecal every 12 hrs; mechanical and thermal HWL
# Description: Experiments were performed on male Sprague-Dawley rats having a weight of 200-250 g. The rats were housed in cages with free access to food and water. Room temperature was maintained at 24±2° C. and a 12 hr light/dark cycle was maintained. All experiments were conducted according to the guidelines of the Committee on Animal Research at the University of California at San Francisco. Every effort was made to minimize animal suffering.
# A polyethylene catheter (Intramedic PE 10) was permanently implanted intrathecally with the inner tip at L3 to L5 in each animal. Rats displaying movement disorders following placement of the catheter were not used in the study. […]
# In the morphine only group, 8 μg morphine HCl was injected every 12 hrs until complete tolerance developed and in the nociceptin only group, 10 nmol nociceptin was injected every 12 hrs until complete tolerance developed. These doses were chosen from previous studies that determined an equianalgesic dosing for these two drugs. […]
# The rats were trained with the testing conditions for five days prior to the experiments to decrease the stress response caused by handling and measurements and to obtain baseline responses. The hindpaw withdrawal latency (HWL) was measured for both thermal and mechanical stimulation. […] The HWLs were measured 15 min after the second intrathecal injection on a daily basis. […]
# [2] = system: male Sprague-Dawley rats; experiment: Rat hindpaw withdrawal latency (HWL) to mechanical stimulation (Randall Selitto Test); details: for % Changes of HWL to Mechanical Stimulation 10 Minutes After Intrathecal Injection, Left: Left hindpaw; for % Changes of HWL to Mechanical Stimulation 10 Minutes After Intrathecal Injection, Right: Right hindpaw
# [3] = system: male Sprague-Dawley rats; experiment: Rat hindpaw withdrawal latency (HWL) to thermal stimulation (hot-plate test, 52° C.); details: for % Changes of HWL to Thermal Stimulation 10 Minutes After Intrathecal Injection, Left: Left hindpaw; for % Changes of HWL to Thermal Stimulation 10 Minutes After Intrathecal Injection, Right: Right hindpaw
# [4] = day 1, intrathecal every 12 hrs: 8 μg morphine, 10 nmol nociceptin, or rotated every two days
# [5] = day 2, intrathecal every 12 hrs: 8 μg morphine, 10 nmol nociceptin, or rotated every two days
# [6] = day 3, intrathecal every 12 hrs: 8 μg morphine, 10 nmol nociceptin, or rotated every two days
# [7] = day 4, intrathecal every 12 hrs: 8 μg morphine, 10 nmol nociceptin, or rotated every two days
# [8] = day 5, intrathecal every 12 hrs: 8 μg morphine, or morphine/nociceptin rotated every two days
# [9] = day 6, intrathecal every 12 hrs: 8 μg morphine, or morphine/nociceptin rotated every two days
# [10] = day 1, drug alone, intrathecal (morphine 8 μg or nociceptin 10 nmol every 12 hrs)
compound,measurement,setting,value
"CN1CC[C@]23c4c5ccc(O)c4O[C@H]2[C@@H](O)C=C[C@H]3[C@H]1C5.Cl [Morphine, morphine HCl]",day by which total/complete tolerance exists,[1],6 days
same,"% Changes of HWL to Mechanical Stimulation 10 Minutes After Intrathecal Injection, Left",[2]; [4],53.99 ± 2.96%
same,"% Changes of HWL to Mechanical Stimulation 10 Minutes After Intrathecal Injection, Left",[2]; [5],47.69 ± 2.54%
same,"% Changes of HWL to Mechanical Stimulation 10 Minutes After Intrathecal Injection, Left",[2]; [6],33.85 ± 1.60%
same,"% Changes of HWL to Mechanical Stimulation 10 Minutes After Intrathecal Injection, Left",[2]; [7],31.37 ± 2.02%
same,"% Changes of HWL to Mechanical Stimulation 10 Minutes After Intrathecal Injection, Left",[2]; [8],15.30 ± 1.39%
same,"% Changes of HWL to Mechanical Stimulation 10 Minutes After Intrathecal Injection, Left",[2]; [9],3.26 ± 1.86%
same,"% Changes of HWL to Mechanical Stimulation 10 Minutes After Intrathecal Injection, Right",[2]; [4],56.04 ± 3.38%
same,"% Changes of HWL to Mechanical Stimulation 10 Minutes After Intrathecal Injection, Right",[2]; [5],46.74 ± 2.52%
same,"% Changes of HWL to Mechanical Stimulation 10 Minutes After Intrathecal Injection, Right",[2]; [6],33.44 ± 1.03%
same,"% Changes of HWL to Mechanical Stimulation 10 Minutes After Intrathecal Injection, Right",[2]; [7],28.84 ± 2.73%
same,"% Changes of HWL to Mechanical Stimulation 10 Minutes After Intrathecal Injection, Right",[2]; [8],16.54 ± 1.26%
same,"% Changes of HWL to Mechanical Stimulation 10 Minutes After Intrathecal Injection, Right",[2]; [9],2.72 ± 1.94%
same,HWL increase using mechanical stimulation,[2]; [10],~55%
same,"% Changes of HWL to Thermal Stimulation 10 Minutes After Intrathecal Injection, Left",[3]; [4],66.26 ± 2.20%
same,"% Changes of HWL to Thermal Stimulation 10 Minutes After Intrathecal Injection, Left",[3]; [5],61.25 ± 3.05%
same,"% Changes of HWL to Thermal Stimulation 10 Minutes After Intrathecal Injection, Left",[3]; [6],51.66 ± 1.73%
same,"% Changes of HWL to Thermal Stimulation 10 Minutes After Intrathecal Injection, Left",[3]; [7],43.63 ± 1.38%
same,"% Changes of HWL to Thermal Stimulation 10 Minutes After Intrathecal Injection, Left",[3]; [8],23.85 ± 1.03%
same,"% Changes of HWL to Thermal Stimulation 10 Minutes After Intrathecal Injection, Left",[3]; [9],−1.30 ± 2.36%
same,"% Changes of HWL to Thermal Stimulation 10 Minutes After Intrathecal Injection, Right",[3]; [4],66.66 ± 1.51%
same,"% Changes of HWL to Thermal Stimulation 10 Minutes After Intrathecal Injection, Right",[3]; [5],63.11 ± 0.64%
same,"% Changes of HWL to Thermal Stimulation 10 Minutes After Intrathecal Injection, Right",[3]; [6],48.74 ± 2.40%
same,"% Changes of HWL to Thermal Stimulation 10 Minutes After Intrathecal Injection, Right",[3]; [7],42.45 ± 1.70%
same,"% Changes of HWL to Thermal Stimulation 10 Minutes After Intrathecal Injection, Right",[3]; [8],25.07 ± 2.07%
same,"% Changes of HWL to Thermal Stimulation 10 Minutes After Intrathecal Injection, Right",[3]; [9],0.51 ± 1.61%
same,HWL increase using thermal stimulation,[3]; [10],approximately 67%
